Data taken from patent US20260207704A1, “STAPLED PEPTIDES AND METHODS THEREOF” (priority 2022, published 2026).
Values belong to the molecule of their own block, whether it stands above or below them. *1 amine or outer side, *2 acyl side, *3 side chain or, on linkers, in order; H or OH if unused. Bridges are numbered along the chain shown (N, C = ends). [ ]: non-standard residue; d: D form. PyrS2 = (S)-3-amino-1-((pent-4-en-1-yloxy)carbonyl)pyrrolidine-3-carboxylic acid, olefin staple residue, C=CCCCOC(=O)N1CC[C@@](N[*:1])(C(=O)[*:2])C1; Phe(3-COOH) = N[C@@H](Cc1cccc(C(=O)O)c1)C(=O)O; 2F3MeF = Cc1cccc(C[C@H](N[*:1])C(=O)[*:2])c1F; Bta = N[C@@H](Cc1csc2ccccc12)C(=O)O; αAllylPro = C=CC[C@@]1(C(=O)O)CCCN1; tBuAla = CC(C)(C)C[C@H](N)C(=O)O; B5 = not defined here

Columns and labels:
beta-catenin/TCF = type: cell-based; details: COLO320DM cells
[1] = mouse plasma pharmacokinetics; type: in vivo; details: single intraperitoneal (IP) dose at 100 mg/kg
beta-catenin [2] = biological target: T1, beta-catenin (Homo sapiens, UniProt P35222); test: fluorescence polarization binding to beta-catenin; details: read-out: beta-Catenin FP IC50
T1 sequence (P35222 1-781): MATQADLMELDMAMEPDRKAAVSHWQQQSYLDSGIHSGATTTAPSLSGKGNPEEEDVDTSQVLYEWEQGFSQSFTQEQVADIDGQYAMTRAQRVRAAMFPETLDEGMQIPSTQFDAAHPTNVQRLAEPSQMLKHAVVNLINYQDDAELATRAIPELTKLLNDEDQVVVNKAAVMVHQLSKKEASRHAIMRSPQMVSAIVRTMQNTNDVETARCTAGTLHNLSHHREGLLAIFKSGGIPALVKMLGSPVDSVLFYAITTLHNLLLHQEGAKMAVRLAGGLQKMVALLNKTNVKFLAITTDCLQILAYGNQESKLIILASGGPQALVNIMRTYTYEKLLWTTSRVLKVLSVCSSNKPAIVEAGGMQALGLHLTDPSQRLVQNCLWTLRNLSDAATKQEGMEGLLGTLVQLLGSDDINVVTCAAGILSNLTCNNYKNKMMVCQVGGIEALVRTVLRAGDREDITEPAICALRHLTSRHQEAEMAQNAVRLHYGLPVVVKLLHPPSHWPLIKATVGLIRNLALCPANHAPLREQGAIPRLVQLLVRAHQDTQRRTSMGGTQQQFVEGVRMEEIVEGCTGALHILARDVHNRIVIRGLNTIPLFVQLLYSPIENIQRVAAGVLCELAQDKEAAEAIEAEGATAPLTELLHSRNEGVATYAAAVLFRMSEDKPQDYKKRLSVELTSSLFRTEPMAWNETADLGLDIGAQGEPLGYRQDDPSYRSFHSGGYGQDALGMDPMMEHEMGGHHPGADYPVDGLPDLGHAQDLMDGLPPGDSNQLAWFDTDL

beta-catenin/TCF4 = biological target: T2, beta-catenin/TCF4 (Homo sapiens, UniProt P35222); test: Nano-BRET target engagement assay (HEK293 cells); type: cell-based; details: read-out: NanoBRET Abs IC50
T2 construct: expressed in transfected cells; host or cells: HEK293 cells
T2 sequence (P35222 1-781): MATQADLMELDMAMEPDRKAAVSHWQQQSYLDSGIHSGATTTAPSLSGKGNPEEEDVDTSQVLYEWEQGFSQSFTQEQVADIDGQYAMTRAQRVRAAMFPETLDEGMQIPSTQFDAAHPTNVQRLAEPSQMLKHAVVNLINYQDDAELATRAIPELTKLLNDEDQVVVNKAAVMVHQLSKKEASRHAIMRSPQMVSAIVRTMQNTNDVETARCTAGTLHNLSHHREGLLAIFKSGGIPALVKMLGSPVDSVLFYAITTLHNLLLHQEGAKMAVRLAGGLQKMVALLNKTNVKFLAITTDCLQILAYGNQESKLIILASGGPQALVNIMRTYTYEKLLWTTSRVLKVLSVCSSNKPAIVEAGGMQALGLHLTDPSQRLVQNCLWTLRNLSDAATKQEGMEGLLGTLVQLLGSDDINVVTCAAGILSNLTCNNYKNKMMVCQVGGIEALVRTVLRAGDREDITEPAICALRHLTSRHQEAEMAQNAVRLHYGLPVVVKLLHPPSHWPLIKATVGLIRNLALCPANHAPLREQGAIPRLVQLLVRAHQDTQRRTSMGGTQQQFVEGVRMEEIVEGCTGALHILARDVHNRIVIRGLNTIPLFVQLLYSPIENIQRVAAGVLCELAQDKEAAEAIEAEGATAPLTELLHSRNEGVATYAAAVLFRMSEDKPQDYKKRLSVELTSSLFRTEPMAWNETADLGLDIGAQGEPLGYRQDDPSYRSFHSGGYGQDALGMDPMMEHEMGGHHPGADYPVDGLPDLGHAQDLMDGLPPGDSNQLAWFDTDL

beta-catenin [3] = biological target: T3, beta-catenin (human, UniProt B6V8E6 146-665 (dog entry), limits assumed); test: cell-based or functional assay
T3 sequence: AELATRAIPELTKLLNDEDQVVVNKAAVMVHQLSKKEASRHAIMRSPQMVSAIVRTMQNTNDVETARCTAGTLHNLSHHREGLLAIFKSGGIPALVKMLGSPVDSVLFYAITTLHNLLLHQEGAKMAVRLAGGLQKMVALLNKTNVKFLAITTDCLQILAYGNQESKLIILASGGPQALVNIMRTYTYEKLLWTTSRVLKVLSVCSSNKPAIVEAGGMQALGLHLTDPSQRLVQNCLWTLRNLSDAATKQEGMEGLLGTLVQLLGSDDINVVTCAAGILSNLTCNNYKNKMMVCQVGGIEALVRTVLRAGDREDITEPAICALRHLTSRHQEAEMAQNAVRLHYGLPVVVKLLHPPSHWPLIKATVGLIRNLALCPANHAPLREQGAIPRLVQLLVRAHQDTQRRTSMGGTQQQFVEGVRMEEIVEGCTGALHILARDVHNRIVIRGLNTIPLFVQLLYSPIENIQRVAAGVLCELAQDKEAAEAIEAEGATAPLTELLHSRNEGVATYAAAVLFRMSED

Molecule: CC(=O)N1CCC[C@]12CC=CCCCC1(CCCC=CCCCOC(=O)N3CC[C@@]4(C3)NC(=O)[C@H](CCCCNC(=O)CC[C@@H](C(=O)N[C@@H](C)C(N)=O)NC(=O)[C@H](Cc3csc5ccccc35)NC(=O)[C@H](Cc3ccsc3)NC4=O)NC(=O)[C@H](Cc3ccccc3)NC(=O)[C@H](C)NC(=O)C(C)(C)NC(=O)[C@H](Cc3cccc(C(=O)O)c3)NC(=O)[C@H](CCC(=O)O)NC1=O)NC(=O)[C@H](CC(C)(C)C)NC(=O)[C@H](CCC(=O)O)NC2=O (relative stereo) [I-470, Ac-PL3-Glu-Npg-B5-Glu-3COOHF-Aib-Ala-Phe-Lys*3-PyrS2-3Thi-BztA-GlnR*3-Ala-NH2]
effect on expression level of AXIN2 (beta-catenin/TCF): no or very little or non-significant effect
plasma AUC [1]: comparable plasma AUC

IC50 (beta-catenin [2]): < 0.05 µM
IC50 (beta-catenin/TCF4): 3 to 10 µM
Molecule: Ac-PL3-Asp-Npg-B5-Asp-4F3Me2COOHF-Aib-Ala-Phe-Lys*3-PyrS2-2F3MeF-BztA-GlnR*3-Ala-NH2 [I-205]

AXIN2 expression IC50, COLO320DM cells (beta-catenin [3]): 1.4 µM
AXIN2 expression IC50, DLD1 cells (beta-catenin [3]): 9.3 µM
SP5 expression IC50, DLD1 cells (beta-catenin [3]): 9 µM
Molecule: Ac-[αAllylPro]D[tBuAla][B5]D[Phe(3-COOH)]AAFL[PyrS2][2F3MeF][Bta]Q-NH2 (staple 1-4, 4-11; not fully specified; reading uncertain) [Peptide A]
